PubChem BioAssay (NCI)
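48-hour exposure; five concentrations; linearly interpolated endpoints. Definition used: TGI = concentration required for complete inhibition of growth.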

What was measured:
Test in all cases: DTP human tumour cell line panel, 48 h
MOLT-4 leukemia = tested on: MOLT-4 leukemia
SK-OV-3 ovarian = tested on: SK-OV-3 ovarian
MDA-MB-435 = tested on: MDA-MB-435
HOP-62 NSCLC = tested on: HOP-62 NSCLC
EKVX NSCLC = tested on: EKVX NSCLC
NCI-H23 lung = tested on: NCI-H23 lung
UACC-62 melanoma = tested on: UACC-62 melanoma
HOP-92 NSCLC = tested on: HOP-92 NSCLC
IGROV1 ovarian = tested on: IGROV1 ovarian
MDA-MB-231 breast = tested on: MDA-MB-231 breast
SK-MEL-28 melanoma = tested on: SK-MEL-28 melanoma
SF-268 CNS = tested on: SF-268 CNS
OVCAR-5 ovarian = tested on: OVCAR-5 ovarian
OVCAR-4 ovarian = tested on: OVCAR-4 ovarian
HCT-116 colon = tested on: HCT-116 colon
NCI-H460 lung = tested on: NCI-H460 lung
HT29 colon = tested on: HT29 colon
MDA-N = tested on: MDA-N
OVCAR-3 ovarian = tested on: OVCAR-3 ovarian
SK-MEL-2 melanoma = tested on: SK-MEL-2 melanoma
UACC-257 melanoma = tested on: UACC-257 melanoma
HS 578T breast = tested on: HS 578T breast
MCF7 breast = tested on: MCF7 breast
KM12 colon = tested on: KM12 colon
HCC-2998 colon = tested on: HCC-2998 colon
HCT-15 colon = tested on: HCT-15 colon
NCI-H522 lung = tested on: NCI-H522 lung
SNB-75 CNS = tested on: SNB-75 CNS
M14 melanoma = tested on: M14 melanoma
SW-620 colon = tested on: SW-620 colon
COLO 205 colon = tested on: COLO 205 colon
U251 CNS = tested on: U251 CNS
MALME-3M melanoma = tested on: MALME-3M melanoma
TK-10 renal = tested on: TK-10 renal
NCI/ADR-RES ovarian = tested on: NCI/ADR-RES ovarian
K-562 leukemia = tested on: K-562 leukemia
SK-MEL-5 melanoma = tested on: SK-MEL-5 melanoma
DU-145 prostate = tested on: DU-145 prostate
SF-295 CNS = tested on: SF-295 CNS
A498 renal = tested on: A498 renal
BT-549 breast = tested on: BT-549 breast
A549 NSCLC = tested on: A549 NSCLC
T-47D breast = tested on: T-47D breast
RPMI-8226 leukemia = tested on: RPMI-8226 leukemia
SNB-19 CNS = tested on: SNB-19 CNS
ACHN renal = tested on: ACHN renal
786-0 renal = tested on: 786-0 renal
PC-3 prostate = tested on: PC-3 prostate
UO-31 renal = tested on: UO-31 renal
OVCAR-8 ovarian = tested on: OVCAR-8 ovarian
RXF 393 renal = tested on: RXF 393 renal
CAKI-1 renal = tested on: CAKI-1 renal
NCI-H226 lung = tested on: NCI-H226 lung
LOX IMVI melanoma = tested on: LOX IMVI melanoma
CCRF-CEM leukemia = tested on: CCRF-CEM leukemia
SN12C renal = tested on: SN12C renal
HL-60(TB) leukemia = tested on: HL-60(TB) leukemia

CCOC(=O)c1cc(C2CCN(Cc3ccccc3)C2=O)c(C(=O)/C=C(/C)N)[nH]1 (stereo not drawn)
TGI (MOLT-4 leukemia): > 100 µM | TGI (SK-OV-3 ovarian): > 100 µM | TGI (MDA-MB-435): > 100 µM | TGI (HOP-62 NSCLC): > 100 µM | TGI (EKVX NSCLC): > 100 µM | TGI (NCI-H23 lung): > 100 µM | TGI (UACC-62 melanoma): > 100 µM | TGI (HOP-92 NSCLC): 97.5 µM | TGI (IGROV1 ovarian): > 100 µM | TGI (MDA-MB-231 breast): > 100 µM | TGI (SK-MEL-28 melanoma): > 100 µM | TGI (SF-268 CNS): > 100 µM | TGI (OVCAR-5 ovarian): > 100 µM | TGI (OVCAR-4 ovarian): > 100 µM | TGI (HCT-116 colon): > 100 µM | TGI (NCI-H460 lung): > 100 µM | TGI (HT29 colon): > 100 µM | TGI (MDA-N): > 100 µM | TGI (OVCAR-3 ovarian): > 100 µM | TGI (SK-MEL-2 melanoma): > 100 µM | TGI (UACC-257 melanoma): > 100 µM | TGI (HS 578T breast): > 100 µM | TGI (MCF7 breast): > 100 µM | TGI (KM12 colon): > 100 µM | TGI (HCC-2998 colon): > 100 µM | TGI (HCT-15 colon): > 100 µM | TGI (NCI-H522 lung): > 100 µM | TGI (SNB-75 CNS): > 100 µM | TGI (M14 melanoma): > 100 µM | TGI (SW-620 colon): > 100 µM | TGI (COLO 205 colon): > 100 µM | TGI (U251 CNS): > 100 µM | TGI (MALME-3M melanoma): > 100 µM | TGI (TK-10 renal): > 100 µM | TGI (NCI/ADR-RES ovarian): > 100 µM | TGI (K-562 leukemia): > 100 µM | TGI (SK-MEL-5 melanoma): > 100 µM | TGI (DU-145 prostate): > 100 µM | TGI (SF-295 CNS): > 100 µM | TGI (A498 renal): > 100 µM | TGI (BT-549 breast): > 100 µM | TGI (A549 NSCLC): > 100 µM | TGI (T-47D breast): > 100 µM | TGI (RPMI-8226 leukemia): > 100 µM | TGI (SNB-19 CNS): > 100 µM | TGI (ACHN renal): > 100 µM | TGI (786-0 renal): > 100 µM | TGI (PC-3 prostate): > 100 µM | TGI (UO-31 renal): > 100 µM | TGI (OVCAR-8 ovarian): > 100 µM | TGI (RXF 393 renal): > 100 µM | TGI (CAKI-1 renal): > 100 µM

CCOC(=O)NC(C(F)(F)F)(C(F)(F)F)P(=O)(OCC)OCC
TGI (MOLT-4 leukemia): 97.9 µM | TGI (SK-OV-3 ovarian): > 100 µM | TGI (MDA-MB-435): > 100 µM | TGI (HOP-62 NSCLC): > 100 µM | TGI (NCI-H23 lung): > 100 µM | TGI (UACC-62 melanoma): > 100 µM | TGI (HOP-92 NSCLC): > 100 µM | TGI (IGROV1 ovarian): > 100 µM | TGI (MDA-MB-231 breast): > 100 µM | TGI (SK-MEL-28 melanoma): > 100 µM | TGI (SF-268 CNS): > 100 µM | TGI (OVCAR-5 ovarian): > 100 µM | TGI (OVCAR-4 ovarian): > 100 µM | TGI (HCT-116 colon): > 100 µM | TGI (NCI-H460 lung): > 100 µM | TGI (NCI-H226 lung): > 100 µM | TGI (HT29 colon): > 100 µM | TGI (MDA-N): > 100 µM | TGI (LOX IMVI melanoma): > 100 µM | TGI (OVCAR-3 ovarian): > 100 µM | TGI (CCRF-CEM leukemia): > 100 µM | TGI (HS 578T breast): > 100 µM | TGI (MCF7 breast): > 100 µM | TGI (KM12 colon): > 100 µM | TGI (HCC-2998 colon): > 100 µM | TGI (HCT-15 colon): > 100 µM | TGI (NCI-H522 lung): 36.9 µM | TGI (SNB-75 CNS): > 100 µM | TGI (M14 melanoma): > 100 µM | TGI (SW-620 colon): > 100 µM | TGI (COLO 205 colon): > 100 µM | TGI (U251 CNS): 79.5 µM | TGI (MALME-3M melanoma): > 100 µM | TGI (TK-10 renal): > 100 µM | TGI (NCI/ADR-RES ovarian): > 100 µM | TGI (K-562 leukemia): > 100 µM | TGI (SN12C renal): > 100 µM | TGI (DU-145 prostate): > 100 µM | TGI (SF-295 CNS): > 100 µM | TGI (A498 renal): > 100 µM | TGI (BT-549 breast): > 100 µM | TGI (T-47D breast): > 100 µM | TGI (RPMI-8226 leukemia): 87.4 µM | TGI (SNB-19 CNS): > 100 µM | TGI (ACHN renal): > 100 µM | TGI (786-0 renal): > 100 µM | TGI (PC-3 prostate): > 100 µM | TGI (UO-31 renal): 85.5 µM | TGI (OVCAR-8 ovarian): > 100 µM | TGI (HL-60(TB) leukemia): > 100 µM | TGI (RXF 393 renal): 44.1 µM
